Values joined by “and” are separate entries in the source; they are usually repeats but may differ in a detail not shown here. Equal values may be shown once.
Experiments:
human progenitor cells = assay: DNA synthesis (3H-Thymidine incorporation) in micromass cultures; format: cell-based; conditions: FIG. 5
Description: FIG. 5. A bar graph of the concentration dependent effects of Pentosan Polysulfate (PPS) on DNA synthesis by human progenitor cells, as determined by the incorporation of ^3H-Thymidine into macromolecular DNA, after 4 day micromass cultures. *=p<0.05; **=p<0.005 relative to controls.
Ten μl of progenitor cells (7×10^6 cells/ml) were seeded into each well of a 24-well culture plate. After incubation at 37° C. in moist 5% CO2/95% air for 2-3 hours, 900 μl of DMEM-High medium (+10% FBS) and indicated concentrations PPS dissolved in DMEM-High medium were added slowly to the wells. The final PPS concentration were 0, 0.1, 0.5, 1.0, 2.5, 5.0, 10.0, 20.0 μg/ml, respectively. Every PPS concentration was established in triplicate. The cultures were allowed to proceed for 3 days. On day 4, to each well of the 24-well plate was added 640 μl of DMEM-High (+10% FBS), 80 μl of 10×PPS solution and 80 μl of 10 μCi/ml ^3H-Thymidine solution to produce a final ^3H-Thymidine concentration of […] and final PPS concentrations as indicated. The cultures were then incubated in 37° C., 5% CO2 for a further 22 hours, the medium was removed and 200 μl of 1 mg/ml Collagenase solution [Collagenase buffer: 66.7 mM NaCl, 6.7 mM KCl, 4.8 mM CaCl2.2H2O, 10 mM HEPES (pH7.4)] was added to each well. […] The radioactivity of ^3H incorporated into the DNA of proliferating cells was measured by scintillation counting.

[1] = tested on: Murine Progenitor Cell (C3H10T1/2); assay: Proteoglycan biosynthesis (35S-GAG) and DNA content in monolayer cultures; format: cell-based; conditions: for biosynthesis of proteoglycans: all concentrations of PPS
Description: FIG. 9. Concentration dependent effects of Pentosan Polysulfate (PPS) on Murine Progenitor Cell (progenitor cells C3H10T1/2) biosynthesis of Proteoglycans (PGs) and DNA content when grown in monolayer cultures. Data shown=Means±SD.
Murine Progenitor cells (cell lines C3H10T1/2 or ATDC5) purchased from RIKEN Cell Bank (Tsukuba, Japan) or human immunoselected Stro-1+ Progenitor cells (Mesoblast Ltd, Melbourne, Australia) were seeded into 50 mL plastic culture flasks containing 1:1 high glucose DMEM/Ham's F-12 medium (Invitrogen) supplemented with 10% FBS (Sigma) and incubated at 37° C., in 5% CO2. After confluence was reached, progenitor cells were released by trypsinization and harvested by centrifugation. Cells were inoculated to 96-well or 24-well plates at a density of 3×10^4 cells or 2×10^5 cells per well. After 48-hour incubation at 37° C., 5% CO2 confluent monolayers were normally established. The medium was then changed to defined medium, which contained different concentrations of PPS with and without rhNC4 and 5 μCi/ml of ^35S—H2SO4 (PerkinElmer, USA). The experiments were generally terminated after 48 hours incubation when proteoglycan biosynthesis was determined by measuring the incorporation of ^35SO4 into the glycosaminoglycans (^35S-GAGs) as described below.
(A) 96-well plates: Cultures were subjected to proteolytic digestion with papain to release glycosaminoglycans. The papain stock solution used contained 2.5 mg/ml papain (Sigma), 7.9 mg/ml cysteine-HCl (Sigma) in papain digest buffer (0.1M NaAc, 5 mM EDTA, pH6.0). 50 μl of papain stock solution was added to each well. The plate was sealed using plastic sheeting and incubated at 65° C. for 2 hours. […]
The ^35SO4-GAGs in the remained solution (200 ul) were precipitated with Cetyl Pyridinium Chloride (CPC) (Sigma). […] Following addition of 3 ml scintillation liquid and vortexing the radioactivity of the ^35S-GAG-CPC complexes were in the samples were measured by scintillation counting (PerkinElmer, USA) and recorded as DPM/sample. The data then was then normalised for DNA and expressed as ^35-S-GAGs/μg DNA.
(B) 24-well plates: After 48 hours incubation in the defined media, the media per well (containing soluble ^35S-labelled proteoglycans) was separated from the cells and transferred to a 2.0 ml microfuge tube. […] The 35S-GAG-CPC complexes collected through the fibre filter and the radioactivity of 35S-GAG was measured using the liquid scintillation analyser as describe above. The cells were extracted with the RNA reagent and aliquots used to determine gene expression and/or the DNA content was measured by the fluorometric assay and the results expressed as ^35-S-GAGs/μg DNA. […]

## pentosan polysulfate [PPS]
Human progenitor cells; 1-5 micrograms/mL
  cell division (3H-Thymidine incorporation into DNA): Marked stimulation of cell division
Human progenitor cells; all PPS concentrations (0.1-20 μg/ml)
  proliferation (3H-Thymidine incorporation into DNA): increased proliferation
[1]; FIG. 9
  PPS concentration best with regard to DNA content: 5 μl/ml and 10 μl/ml
  PPS concentration best with regards to PG synthesis: 10 μl/ml
  biosynthesis of proteoglycans: increased
[1]; FIG. 9, listed as polysulfated polysaccharides
  biosynthesis of proteoglycans: chondrogenic promoting effect
